Experiments:
HeLa = test: MTT cytotoxicity assay, HeLa; assay type: cell-based, human; conditions: 48 h, mean ± SD of three experiments
Method: (§1) Compounds 1–4 were evaluated against three tumor cell lines derived from different tissues, including the cervix (HeLa), lung (A549) and cisplatin-resistant lung (A549R) tissues. For comparison, the cytotoxicity of cisplatin was also evaluated. As a control, the toxicities of the complexes were also tested against the normal human cell line (LO2).
(§2) The human cervix carcinoma cell line (HeLa), the lung carcinoma cell lines (A549 and A549R), and the human hepatocyte cell line (LO2) were obtained from the Experimental Animal Center at Sun Yat-Sen University (Guangzhou, China). The cells were maintained in Dulbecco’s modified Eagle’s medium (DMEM, Gibco BRL) or Roswell Park Memorial Institute 1640 (RPMI 1640, Gibco BRL) medium supplemented with 10% fetal bovine serum (FBS, Gibco BRL), 100 μg/mL streptomycin, and 100 U/mL penicillin (Gibco BRL) in a humidified incubator under 5% CO2 and 20% O2 at 37 °C. To maintain the resistant phenotype, A549R cells were incubated with 5 μM cisplatin and cultured in drug-free medium for at least a week before use.
(§3) The cytotoxicity of the ruthenium complexes and cisplatin were determined by an MTT assay. Briefly, cells were seeded into 96-well microtiter plates at 1 × 10^4 cells per well and grown overnight at 37 °C in a 5% CO2 incubator; then, different concentrations of the complexes in cell culture medium were added to the cultures. The plates were then incubated in an incubator for 48 h under the same conditions. The stock MTT dye solution (15 μL, 5 mg/mL) was added to each well. After 4 h of incubation, the cultures were removed and 150 μL of DMSO was added to each well. The optical density of each well was measured on a microplate spectrophotometer at a wavelength of 595 nm.

A549 = test: MTT cytotoxicity assay, A549; assay type: cell-based, human; conditions: A549, 48 h, mean ± SD of three experiments
Method: as §1, §2, §3

A549R = test: MTT cytotoxicity assay, cisplatin-resistant A549R; assay type: cell-based, human; conditions: 48 h, mean ± SD of three experiments
Method: as §1, §2, §3

LO2 = test: MTT cytotoxicity assay, normal LO2 cells; assay type: cell-based; conditions: LO2 normal human cell line, 48 h
Method: as §1, §2, §3

A549R MCTSs [1] = test: Cytotoxicity test on 3D MCTSs (Cell TiterGlo ATP); assay type: cell-based, human; conditions: A549R MCTSs (~400 μm in diameter), 48 h
Method: (§4) MCTSs were cultured using the liquid overlay method. A549R cells in the exponential growth phase were dissociated by a trypsin/EDTA solution to gain single-cell suspensions. A number of 3000 diluted A549R cells were transferred to 1.5% agarose-coated transparent 96-well plates with 200 μL of DMEM containing 10% serum. The single cells formed MCTS aggregates approximately 400 μm in diameter after three days with 5% CO2 and 20% O2 at 37 °C. After formation of the MCTSs, each MCTS in a 96-well plate was imaged with a phase contrast microscope (Zeiss Axio Observer D1, Germany) using 10× objective to monitor their color, integrity, diameter, and volume.
A549R MCTSs (diameters ≈400 μm) were treated by carefully replacing 50% of the medium with drug-supplemented standard medium using an eight-channel pipet. In parallel, 50% of the medium containing solvent was replaced with solvent-free medium for the untreated MCTSs. Three A549R MCTSs were treated per condition and drug concentration; the DMSO volume was less than 1% (v/v). The MCTSs were then allowed to incubate for another 48 h. The cytotoxicities of the Ru(II) complexes toward the MCTSs were measured using ATP concentrations with a Cell TiterGlo kit (Promega). After 30 min of incubation, the MCTSs were carefully transferred into black-sided, flat-bottomed 96-well plates (Corning) and mixed with a pipet for luminescence measurements on an Infinite M200 PRO instrument (TECAN).

A549R cells [2] = test: Cell uptake study by ICP-MS; assay type: cell-based, human; conditions: 2.0 μM, 12 h
Method: (§5) To understand the high sensitivity of cancer cells to Ru(II) complexes, the extent of cellular uptake was investigated with inductively coupled plasma mass spectrometry (ICP-MS) by treating the HeLa, A549, A549R and LO2 cell lines with 2.0 μM concentrations of the Ru(II) complexes and cisplatin for 12 h. […] In this study, the cellular uptake and lipophilicity were distinctly correlated and followed the order: 4 >3 >2 >1. Complex 4 had the best accumulation, but the amount of Ru in LO2 cells was far less than that in the three cancer lines, indicating selective accumulation and improved efficiency for treating cancer. Cisplatin was taken up more efficiently by the sensitive cell line (A549) than by the cisplatin-resistant cell line (A549R). […] However, less than 1.5% of the cellular platinum was accumulated in the mitochondrial fraction of the A549R cells. Therefore, complex 4 could function in a different manner than cisplatin in A549R cells, which would be an appropriate solution to combat cisplatin resistance in tumor cells.
The cells were plated at a density of 1 × 10^5 cells/mL in 10 mL of DMEM for 24 h at 37 °C under 5% CO2 and 20% O2, Ruthenium complexes (2.0 μM) and cisplatin were added to the culture medium and incubated for 12 h, and mixed with cold PBS and a trypsin-EDTA solution in a centrifuge tube for counting. Then, the nuclei and cytoplasm of the cells were extracted by using a Nuclear and Cytoplasmic Protein Extraction Kit (Life Technologies). The samples were digested in 20% HNO3 and 10% H2O2 at room temperature overnight. Each sample was then diluted with Milli-Q water to obtain 2% HNO3 sample solutions. Ruthenium contents were determined using inductively coupled plasma mass spectrometry (ICP-MS Thermo Elemental Co., Ltd.).

A549R cells [3] = test: Subcellular distribution study by ICP-MS; assay type: cell-based, human; conditions: 2.0 μM, 12 h
Method: as §5
A549R cells were plated at a density of 1 × 10^5 cells/mL in 10 mL of DMEM for 24 h at 37 °C under 5% CO2 and 20% O2. […] The ruthenium or platinum contents were determined using inductively coupled plasma mass spectrometry (ICP-MS Thermo Elemental Co., Ltd.).

A549R cells [4] = test: Real-time cell growth and proliferation assay (xCELLigence); assay type: cell-based, human; conditions: 100 μM
Method: In addition, a real-time cell growth and proliferation assay using an xCELLigence System was utilized to confirm the high toxicity of complex 4 on A549R cells. […] In contrast, A549R cells were killed by treatment with complex 4 in a concentration-dependent manner.
This experiment was performed using an xCELLigence RTCA DP system real time cell analyzer (Roche Diagnostics GmbH, Germany). In brief, 80 μL of cell culture media was added to each well of a 16-well plate (E-plate 16, Roche Diagnostics GmbH, Germany). The 16-well plates were then connected to the system and checked for suitable electrical contacts in the real time cell analyzer, and the background impedance was measured for 24 s. Meanwhile, the A549R cells were suspended in cell culture medium and adjusted to 5 × 10^4 cells/mL, and 100 μL of each cell suspension was added to each well of […]. Approximately 24 h after seeding, the A549R cells were in the logarithmic phase of growth, and a wide range of concentrations of complex 4 and cisplatin (100 μM) were added. The cells were automatically monitored every 15 min over 48 h by the xCELLigence system. Data were analyzed using RTCA software (version 1.2) that was supplied with the instrument.

A549R MCTSs [5] = test: Growth inhibition of drug-treated MCTSs (size by imaging); assay type: cell-based, human; conditions: 100 μM
From the text: Traditional research on the efficacy of cancer drugs is usually performed in two-dimensional (2-D) cell cultures, which may not be a true indicator of the in vivo effectiveness of cancer treatments. This is in part due to the absence of cell-cell or cell-extracellular matrix interactions in 2-D cell models. Therefore, the development of cell culture models that can close the gap between conventional 2-D cell experiments and animal studies is necessary to study the cytotoxicity and anti-proliferative activities of drugs. Multicellular tumor spheroids (MCTSs) are heterogeneous cellular aggregates that have properties of solid tumors, such as nutrient and oxygen gradients, hypoxic/necrotic regions, cell-cell matrix interactions, and gene expression.
as §4, with “After formation of the MCTSs, each MCTS in a 96-well plate was imaged with a phase contrast microscope (Zeiss Axio Observer D1, Germany) using 10× objective to monitor their color, integrity, diameter, and volume.” left out

[6] = Distribution coefficient (log Po/w), flask-shaking, n-octanol/phosphate buffer; assay type: physicochemical; conditions: n-octanol / phosphate buffer pH 7.4, 37 °C; in words only (Figure S8)
Method: Distribution coefficients (log Po/w) were determined by liquid-liquid extraction between n-octanol (oil) and phosphate buffers (0.2 M, pH 7.4) with the flask-shaking method. N-Octanol and the buffer were mutually saturated with each other for at least 24 h before use. An aliquot of a ruthenium complex stock solution was added to the phosphate buffer concentrations at <10 mg/mL, and the mixture was shaken at 100 rpm for 24 h at 37 °C to allow for adequate partitioning. After the sample was centrifuged at 3000 rpm for 20 min, the aqueous layer was used for ruthenium analysis, and the Ru content in the aqueous layer was measured by ICP-MS and used to calculate the log Po/w.

[7] = system: cancer cell lines (HeLa, A549, A549R); test: MTT cytotoxicity, all tested cancer cell lines taken together; assay type: cell-based, human; conditions: 48 h, read-out: IC50 toward all the tested cancer cell lines
Method: as §1, §3

Q: Which IC50 (HeLa) does the source give for `N.N.[Cl][Pt][Cl]` [cisplatin] here?
A: 15.1 ± 2.1 µM

Q: And the IC50 (A549)?
A: 21.3 ± 3.3 µM

Q: And the IC50 (A549R)?
A: 142 ± 5.4 µM

Q: What about the IC50 (LO2) of the same compound?
A: 18.9 ± 2.6 µM

Q: And the IC50 (A549R MCTSs [1])?
A: > 200 µM

Q: And the “share of the compound taken up by A549R cells” value (A549R cells [2]; A549R)?
A: less than 1%

Q: What about the “platinum level in A549 cells relative to A549R cells” value (A549R cells [2]; A549 vs A549R) of the same compound?
A: ca. 4 fold

Q: What about the “share of cellular metal accumulated in the mitochondrial fraction” value (A549R cells [3]) of the same compound?
A: less than 1.5%

Q: And the “effect on A549R cells compared to the control (xCELLigence)” value (A549R cells [4])?
A: negative effect

Q: And the “change in size of A549R MCTSs” value (A549R MCTSs [5])?
A: increased with time

Q: Which IC50 (HeLa) does the source give for `FC(F)(F)c1ccc(-c2nc3c4cccnc4c4ncccc4c3[nH]2)cc1.[Ru+2].c1cnc2c(c1)ccc1cccnc12.c1cnc2c(c1)ccc1cccnc12` [Complex 2] here?
A: 55.4 ± 3.1 µM

Q: What about the IC50 (A549) of the same compound?
A: 43.4 ± 5.3 µM

Q: And the IC50 (A549R)?
A: 48.2 ± 2.7 µM

Q: And the IC50 (LO2)?
A: 75.8 ± 7.5 µM

Q: What about the IC50 (A549R MCTSs [1]) of the same compound?
A: 95.7 µM

Q: What about the “log Po/w” value [6] of the same compound?
A: moderate

Q: Which results are given for Ru(phen)2(tbtfpip)(PF6)2 [Complex 3]?
A: IC50 (HeLa): 22.5 ± 3.3 µM; IC50 (A549): 28.6 ± 2.6 µM; IC50 (A549R): 32.2 ± 1.5 µM; IC50 (LO2): 45.6 ± 3.8 µM; IC50 (A549R MCTSs [1]): 60.6 ± 5.5 µM; log Po/w [6]: moderate

Q: What does the source list for `[Ru+2].c1ccc(-c2nc3c4cccnc4c4ncccc4c3[nH]2)cc1.c1cnc2c(c1)ccc1cccnc12.c1cnc2c(c1)ccc1cccnc12` [Complex 1, [Ru(phen)2(PIP)]^2+]?
A: IC50 (HeLa): > 100 µM; IC50 (A549): > 100 µM; IC50 (A549R): > 100 µM; IC50 (LO2): > 100 µM; IC50 (A549R MCTSs [1]): > 100 µM; IC50 [7]: > 100 µM; log Po/w [6]: negative

— paper PMC4725915, “Ruthenium(II) Complexes with 2-Phenylimidazo[4,5-f][1,10]phenanthroline Derivatives that Strongly Combat Cisplatin-Resistant Tumor Cells” (Scientific Reports, 2016)
